Results reported in patent US6420427B1, “Aminobutyric acid derivatives” (Ono Pharmaceutical Co., Ltd., priority 1997, dated 2002).

Experiments:
Format in all cases: biochemical
collagenase = biological target: T1, collagenase (Homo sapiens, UniProt P03956); test: Inhibitory activity against collagenase; settings: procollagenase from HNDF, trypsin-activated; thioester substrate 1.33 mM, 26° C., absorption at 324 nm
T1 construct: endogenous in cells; host or cells: human normal skin dermal fibroblasts (HNDF)
T1 sequence (P03956 100-469): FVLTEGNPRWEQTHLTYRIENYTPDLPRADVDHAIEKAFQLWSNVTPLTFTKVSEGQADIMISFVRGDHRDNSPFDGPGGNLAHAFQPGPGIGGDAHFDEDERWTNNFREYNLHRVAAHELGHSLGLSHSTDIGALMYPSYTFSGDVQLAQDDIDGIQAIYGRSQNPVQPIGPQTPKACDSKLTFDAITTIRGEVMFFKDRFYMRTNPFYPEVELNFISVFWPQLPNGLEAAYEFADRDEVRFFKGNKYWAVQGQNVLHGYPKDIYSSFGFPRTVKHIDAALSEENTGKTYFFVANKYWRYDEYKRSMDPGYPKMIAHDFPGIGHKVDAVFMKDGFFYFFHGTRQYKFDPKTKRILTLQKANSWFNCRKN
Experimental: (2) Inhibitory Activity Against Collagenase
The procollagenase (5 μl; in assay buffer (105 μl)) was purified from human normal skin dermal fibroblasts (HNDF). It was activated by the addition of 1 mg/ml Trypsin (45 μl) for 1 minute at 37° C. Trypsin was inactivated by addition of 5 mg/ml soybean trypsin inhibitor (SBTI; 50 μl).
A mixture of the synthetic substrate (Ac-Pro-Leu-Gly-[2-mercapto-4-methyl-pentanoyl]-Leu-Gly-OEt) (105 μl; a final concentration 1.33 mM) and a solution (20 μl) with or without various concentrations of the test compound was preincubated for 5 minutes at 26° C.
The solution of activated enzyme (75 μl/tube, 50 μl) was mixed with the mixture and the mixture was incubated for 10 minutes at 26° C.
Absorption at 324 nm was measured at 40 points over 10 minutes. Vmax value was determined as measured value in 30 points therein.

gelatinase A = biological target: T2, gelatinase A (Homo sapiens, UniProt P08253); test: Inhibitory activity against gelatinase A; settings: progelatinase A from human normal skin dermal fibroblasts (HNDF), APMA-activated; fluorogenic substrate MOCAc-Pro-Leu-Gly-A2pr(Dnp)-Ala-Arg-NH2 13.5 μM, 37° C.
T2 construct: endogenous in cells; host or cells: human normal skin dermal fibroblasts (HNDF)
T2 sequence (P08253 110-660): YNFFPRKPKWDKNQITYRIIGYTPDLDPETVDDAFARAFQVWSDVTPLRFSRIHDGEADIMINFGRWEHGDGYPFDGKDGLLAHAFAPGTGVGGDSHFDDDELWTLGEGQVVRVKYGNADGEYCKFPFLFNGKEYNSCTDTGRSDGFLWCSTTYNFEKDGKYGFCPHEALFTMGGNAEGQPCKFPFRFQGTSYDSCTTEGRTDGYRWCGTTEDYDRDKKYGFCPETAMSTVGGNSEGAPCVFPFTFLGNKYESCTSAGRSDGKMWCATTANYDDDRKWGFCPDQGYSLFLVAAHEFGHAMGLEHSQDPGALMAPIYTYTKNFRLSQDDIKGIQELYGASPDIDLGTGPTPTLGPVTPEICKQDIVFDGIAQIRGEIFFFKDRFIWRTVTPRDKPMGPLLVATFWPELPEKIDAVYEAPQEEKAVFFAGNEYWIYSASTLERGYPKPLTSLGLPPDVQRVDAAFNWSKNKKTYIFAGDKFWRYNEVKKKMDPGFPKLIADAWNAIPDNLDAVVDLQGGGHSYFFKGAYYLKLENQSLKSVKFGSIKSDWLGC
Experimental: (1) Inhibitory Activity Against Gelatinase A
The progelatinase A (5 μl; in assay buffer (40 μl)) was purified from human normal skin dermal fibroblasts (HNDF). It was activated by the addition of 10 mM of p-aminophenylmercuric acetate (APMA) ([…]) for 1 hour at 37° C.
A mixture of the synthetic substrate (MOCAc-Pro-Leu-Gly-A2pr(Dnp)-Ala-Arg-NH2) (130 μl; a final concentration 13.5 μM) and a solution (20 μl) with or without various concentrations of the test compound was preincubated for 5 minutes at 37° C.
The solution of activated gelatinase A (50 μl/well) was mixed with the mixture and the mixture was incubated for 15 minutes at 37° C. The enzyme reaction was started. The enzyme activity was represented by increasing value of fluorescent intensity [Ex=325 nm (Ex)/393 nm (Em)] per 1 minute. Inhibitory activity was represented by inhibitory percentage (%) per enzyme activity without the test compound. For example, IC50 of the compound as Example 71 is 0.50 nM.

human stromelysin = biological target: T3, human stromelysin (Homo sapiens, UniProt P08254); test: Inhibitory activity against stromelysin; settings: APMA-activated, substrate NFF-3, pH 7.5, 37° C.
T3 construct: purchased Yagai
Experimental: (3) Inhibitory Activity Against Stromelysin ps [Method]
The mixture of human stromelysin (Yagai; 9 volume) and 10 mM p-aminophenylmercury acetate (1 volume) was activated for 20 hours at 37° C. A solution of the test compound in dimethylsulfoxide (10 μl) and 0.5 mM solution (10 μl) of 10 mM solution of the synthetic substrate NFF-3 (Mca-Arg-Pro-Lys-Pro-Val-Glu-Nva-Trp-Arg-Lys(DNP)-NH2., Nva: norvaline, Peptide Laboratory) in dimethylsulfoxide diluted by water were added to assay buffer (50 mM tris-HCl, 10 mM CaCl2, 0.05% Brij35, 0.02% NaN3 (pH 7.5)) (150 μl). Furthermore, assay buffer (30 μl) was added to the mixture. The mixture was incubated for 10 minutes at 37° C. The reaction was started by addition of a solution of the above activated stromelysin solution (50 μl). The enzyme activity was represented by increasing value of fluorescent intensity [Ex=325 nm (Ex)/393 nm (Em)] per 1 minute. Inhibitory activity was represented by inhibitory percentage (%) per enzyme activity without the test compound.

T3 sequence (P08254 100-477): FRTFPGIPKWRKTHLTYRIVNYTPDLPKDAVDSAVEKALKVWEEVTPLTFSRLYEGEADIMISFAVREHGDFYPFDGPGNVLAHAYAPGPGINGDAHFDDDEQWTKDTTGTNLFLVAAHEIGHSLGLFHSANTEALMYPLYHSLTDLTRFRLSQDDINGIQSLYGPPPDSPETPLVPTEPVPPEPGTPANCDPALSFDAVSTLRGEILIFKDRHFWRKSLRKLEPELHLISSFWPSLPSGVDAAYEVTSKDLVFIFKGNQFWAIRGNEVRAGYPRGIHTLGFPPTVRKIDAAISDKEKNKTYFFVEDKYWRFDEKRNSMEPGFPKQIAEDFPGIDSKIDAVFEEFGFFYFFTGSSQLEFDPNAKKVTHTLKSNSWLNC

CCOCOC[C@H](C[C@H](C)C(=O)NO)NC(=O)c1ccc(Oc2ccccc2)cc1 [Example 71, N-Hydroxy-2(S)-methyl-5-ethoxymethoxy-4(S)-[N-(4-phenoxyphenylcarbonyl)-amino]pentanamide]
IC50 (collagenase): 2500 nM
IC50 (gelatinase A): 0.5 nM
IC50 (human stromelysin): 26 nM
